The source of these data is US20080176862A1, “New Compounds 617” (ASTRAZENECA AB, priority 2006, published 2008).

Counter-ions that a name gives are not always drawn.

A word on the IC50: it is the concentration that gives 50% inhibition.

For the experiment, the target named is T1, human β-Secretase (soluble part, AA1-AA460; sBACE-Fc) (Homo sapiens, UniProt P56817).
T1 construct: The soluble part of the human β-Secretase (AA1-AA460) was cloned into the ASP2-Fc10-1-IRES-GFP-neoK mammalian expression vector; made in house
T1 sequence (P56817 22-460): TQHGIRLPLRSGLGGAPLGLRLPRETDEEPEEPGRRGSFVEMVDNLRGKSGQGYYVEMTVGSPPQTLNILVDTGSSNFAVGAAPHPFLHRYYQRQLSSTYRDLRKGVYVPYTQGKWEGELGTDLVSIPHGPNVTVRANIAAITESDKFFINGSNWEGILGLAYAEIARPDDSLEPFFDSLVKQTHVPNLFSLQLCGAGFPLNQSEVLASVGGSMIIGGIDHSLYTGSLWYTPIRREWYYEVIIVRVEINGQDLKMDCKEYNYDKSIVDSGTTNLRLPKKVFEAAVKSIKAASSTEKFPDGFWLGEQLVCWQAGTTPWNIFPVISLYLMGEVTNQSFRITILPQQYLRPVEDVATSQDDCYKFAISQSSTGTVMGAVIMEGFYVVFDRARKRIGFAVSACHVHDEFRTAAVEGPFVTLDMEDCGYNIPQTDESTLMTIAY
The experiment in a line: TR-FRET assay. The class given is biochemical. The settings on record: substrate (Europium)CEVNLDAEFK(Qsy7) 100 nM, pH 4.5, 15 min at RT; read-out: IC50 (nM) in TR-FRET assay.
`CN1C(=O)C(c2cccc(OS(=O)(=O)c3ccc(-n4cccn4)cc3)c2)(c2ccc(F)c(-c3cncnc3)c2)N=C1N` (stereo not drawn) [Example 238, 3-[2-Amino-4-(4-fluoro-3-pyrimidin-5-ylphenyl)-1-methyl-5-oxo-4,5-dihydro-1H-imidazol-4-yl]phenyl 4-(1H-pyrazol-1-yl)benzenesulfonate]: the IC50 was 46 nM.

In the case of `CN1C(=O)C(c2cccc(OS(=O)(=O)c3ccc4c(c3)CCC4)c2)(c2ccc(F)c(-c3cncnc3)c2)N=C1N` (stereo not drawn) [Example 239, 3-[2-Amino-4-(4-fluoro-3-pyrimidin-5-ylphenyl)-1-methyl-5-oxo-4,5-dihydro-1H-imidazol-4-yl]phenyl indane-5-sulfonate], the IC50 was 19 nM.

As to `CN1C(=O)C(c2cccc(OS(=O)(=O)c3ccc4c(c3)oc(=O)n4C)c2)(c2ccc(F)c(-c3cncnc3)c2)N=C1N` (stereo not drawn) [Example 240, 3-[2-Amino-4-(4-fluoro-3-pyrimidin-5-ylphenyl)-1-methyl-5-oxo-4,5-dihydro-1H-imidazol-4-yl]phenyl 3-methyl-2-oxo-2,3-dihydro-1,3-benzoxazole-6-sulfonate], the IC50 came out at 20 nM.

`Cc1nn(C)c(Cl)c1S(=O)(=O)Oc1cccc(C2(c3ccc(F)c(-c4cncnc4)c3)N=C(N)N(C)C2=O)c1` (stereo not drawn) [Example 241, 3-[2-Amino-4-(4-fluoro-3-pyrimidin-5-ylphenyl)-1-methyl-5-oxo-4,5-dihydro-1H-imidazol-4-yl]phenyl 5-chloro-1,3-dimethyl-1H-pyrazole-4-sulfonate]: the IC50 amounted to 20 nM.

In the case of `CN1C(=O)C(c2cccc(OS(=O)(=O)c3ccc(Cl)s3)c2)(c2ccc(F)c(-c3cncnc3)c2)N=C1N` (stereo not drawn) [Example 242, 3-[2-Amino-4-(4-fluoro-3-pyrimidin-5-ylphenyl)-1-methyl-5-oxo-4,5-dihydro-1H-imidazol-4-yl]phenyl-5-chlorothiophene-2-sulfonate], the IC50 was 31 nM.

For the molecule `CN1C(=O)C(c2cccc(OS(=O)(=O)c3cn(C)cn3)c2)(c2ccc(F)c(-c3cncnc3)c2)N=C1N` (stereo not drawn) [Example 243, 3-[2-Amino-4-(4-fluoro-3-pyrimidin-5-ylphenyl)-1-methyl-5-oxo-4,5-dihydro-1H-imidazol-4-yl]phenyl 1-methyl-1H-imidazole-4-sulfonate], the IC50 turned out to be 26 nM.

Regarding `CCc1ccc(C2(c3ccc(F)c(-c4cncnc4)c3)N=C(N)N(C)C2=O)cc1OS(C)(=O)=O` (stereo not drawn) [Example 253, 5-[2-Amino-4-(4-fluoro-3-pyrimidin-5-ylphenyl)-1-methyl-5-oxo-4,5-dihydro-1H-imidazol-4-yl]-2-ethylphenyl methanesulfonate 0.5 acetate], the IC50 was found to be 96 nM.

As to `CCC(C)(C)c1ccc(S(=O)(=O)Oc2ccc(C3(c4ccc(F)c(-c5cncnc5)c4)N=C(N)N(C)C3=O)cc2)cc1` (stereo not drawn) [Example 276, 4-[2-Amino-4-(4-fluoro-3-pyrimidin-5-ylphenyl)-1-methyl-5-oxo-4,5-dihydro-1H-imidazol-4-yl]phenyl 4-(1,1-dimethylpropyl)benzenesulfonate], the IC50 stood at 183 nM.

As for `COc1ccc(OC)c(S(=O)(=O)Oc2ccc(C3(c4ccc(F)c(-c5cncnc5)c4)N=C(N)N(C)C3=O)cc2)c1` (stereo not drawn) [Example 277, 4-[2-Amino-4-(4-fluoro-3-pyrimidin-5-ylphenyl)-1-methyl-5-oxo-4,5-dihydro-1H-imidazol-4-yl]phenyl 2,5-dimethoxybenzenesulfonate], the IC50 came out at 183 nM.

With `CN1C(=O)C(c2ccc(OS(=O)(=O)c3c(F)cccc3F)cc2)(c2ccc(F)c(-c3cncnc3)c2)N=C1N` (stereo not drawn) [Example 278, 4-[2-Amino-4-(4-fluoro-3-pyrimidin-5-ylphenyl)-1-methyl-5-oxo-4,5-dihydro-1H-imidazol-4-yl]phenyl 2,6-difluorobenzenesulfonate], the IC50 amounted to 65 nM.

As for `COc1ccc(S(=O)(=O)Oc2ccc(C3(c4ccc(F)c(-c5cncnc5)c4)N=C(N)N(C)C3=O)cc2)cc1` (stereo not drawn) [Example 279, 4-[2-amino-4-(4-fluoro-3-pyrimidin-5-ylphenyl)-1-methyl-5-oxo-4,5-dihydro-1H-imidazol-4-yl]phenyl 4-methoxybenzenesulfonate], the concentration for half-maximal inhibition (IC50) worked out at 23 nM.

Regarding `Cc1noc(C)c1S(=O)(=O)Oc1ccc(C2(c3ccc(F)c(-c4cncnc4)c3)N=C(N)N(C)C2=O)cc1` (stereo not drawn) [Example 280, 4-[2-amino-4-(4-fluoro-3-pyrimidin-5-ylphenyl)-1-methyl-5-oxo-4,5-dihydro-1H-imidazol-4-yl]phenyl 3,5-dimethylisoxazole-4-sulfonate], the IC50 was 234 nM.

`CCC(C)(C)c1ccc(S(=O)(=O)Oc2ccc(C3(c4ccc(F)c(-c5cccnc5)c4)N=C(N)N(C)C3=O)cc2)cc1` (stereo not drawn) [Example 281, 4-[2-Amino-4-(4-fluoro-3-pyridin-3-ylphenyl)-1-methyl-5-oxo-4,5-dihydro-1H-imidazol-4-yl]phenyl 4-(1,1-dimethylpropyl)benzenesulfonate]: the IC50 was determined as 79 nM.

Consider `COc1ccc(OC)c(S(=O)(=O)Oc2ccc(C3(c4ccc(F)c(-c5cccnc5)c4)N=C(N)N(C)C3=O)cc2)c1` (stereo not drawn) [Example 282, 4-[2-Amino-4-(4-fluoro-3-pyridin-3-ylphenyl)-1-methyl-5-oxo-4,5-dihydro-1H-imidazol-4-yl]phenyl 2,5-dimethoxybenzenesulfonate0.25 acetate], for which the IC50 came out at 59 nM.

For `CN1C(=O)C(c2cccc(OS(=O)(=O)c3ccc4c(c3)CCC4)c2)(c2ccc(F)c(-c3cccnc3)c2)N=C1N` (stereo not drawn) [Example 283, 3-[2-Amino-4-(4-fluoro-3-pyridin-3-ylphenyl)-1-methyl-5-oxo-4,5-dihydro-1H-imidazol-4-yl]phenyl indane-5-sulfonate 0.25 acetate], the IC50 amounted to 30 nM.

For the molecule `CN1C(=O)C(c2ccc(OS(=O)(=O)c3ccc4c(c3)oc(=O)n4C)cc2)(c2ccc(F)c(-c3cccnc3)c2)N=C1N` (stereo not drawn) [Example 284, 4-[2-Amino-4-(4-fluoro-3-pyridin-3-ylphenyl)-1-methyl-5-oxo-4,5-dihydro-1H-imidazol-4-yl]phenyl 3-methyl-2-oxo-2,3-dihydro-1,3-benzoxazole-6-sulfonate 0.5acetate], the IC50 was 60 nM.

As to `Cc1nn(C)c(Cl)c1S(=O)(=O)Oc1ccc(C2(c3ccc(F)c(-c4cccnc4)c3)N=C(N)N(C)C2=O)cc1` (stereo not drawn) [Example 285, 4-[2-Amino-4-(4-fluoro-3-pyridin-3-ylphenyl)-1-methyl-5-oxo-4,5-dihydro-1H-imidazol-4-yl]phenyl 5-chloro-1,3-dimethyl-1H-pyrazole-4-sulfonate 0.25 acetate], the IC50 is 122 nM.

As for `CN1C(=O)C(c2ccc(OS(=O)(=O)c3c(Cl)nc4sccn34)cc2)(c2ccc(F)c(-c3cccnc3)c2)N=C1N` (stereo not drawn) [Example 286], the IC50 turned out to be 68 nM.

In the case of `CN1C(=O)C(c2ccc(OS(=O)(=O)c3cn(C)cn3)cc2)(c2ccc(F)c(-c3cccnc3)c2)N=C1N` (stereo not drawn) [Example 287, 4-[2-Amino-4-(4-fluoro-3-pyridin-3-ylphenyl)-1-methyl-5-oxo-4,5-dihydro-1H-imidazol-4-yl]phenyl 1-methyl-1H-imidazole-4-sulfonate], the IC50 stood at 1020 nM.

Turning to `COc1ccc(C(C)=O)c(-c2cc(C3(c4ccc(OS(C)(=O)=O)cc4)N=C(N)N(C)C3=O)ccc2F)c1` (stereo not drawn) [Example 289, 4-[4-(2′-Acetyl-6-fluoro-5′-methoxybiphenyl-3-yl)-2-amino-1-methyl-5-oxo-4,5-dihydro-1H-imidazol-4-yl]phenyl methanesulfonate], the IC50 came to 115 nM.

As for `COc1cccc(-c2ccnc(C3(c4ccc(OS(C)(=O)=O)cc4)N=C(N)N(C)C3=O)c2)c1` (stereo not drawn) [Example 296, 4-{2-Amino-4-[4-(3-methoxyphenyl)pyridin-2-yl]-1-methyl-5-oxo-4,5-dihydro-1H-imidazol-4-yl}phenyl methanesulfonate 0.25 acetate], the IC50 is 1350 nM.

For the molecule `COc1cccc(-c2ccnc(C3(c4ccc(OS(=O)(=O)C(F)(F)F)cc4)N=C(N)N(C)C3=O)c2)c1` (stereo not drawn) [Example 298, 4-{2-Amino-4-[4-(3-methoxyphenyl)pyridin-2-yl]-1-methyl-5-oxo-4,5-dihydro-1H-imidazol-4-yl}phenyl trifluoromethanesulfonate 0.5 acetate], the 50% inhibitory concentration (IC50) stood at 874 nM.

For `CN1C(=O)C(c2ccc(OS(C)(=O)=O)cc2)(c2ccc(F)c(C3=CCCCC3)c2)N=C1N` (stereo not drawn) [Example 299, 4-[2-Amino-4-(3-cyclohex-1-en-1-yl-4-fluorophenyl)-1-methyl-5-oxo-4,5-dihydro-1H-imidazol-4-yl]phenyl methanesulfonate 0.5 acetate], the IC50 turned out to be 330 nM.

With `CN1C(=O)C(c2ccc(OS(C)(=O)=O)cc2)(c2ccc(F)c(C3CCCCC3)c2)N=C1N` (stereo not drawn) [Example 300, 4-[2-Amino-4-(3-cyclohexyl-4-fluorophenyl)-1-methyl-5-oxo-4,5-dihydro-1H-imidazol-4-yl]phenyl methanesulfonate 0.5 acetate], the IC50 turned out to be 410 nM.

Turning to `COc1ccnc(-c2cc(C3(c4ccc(OS(C)(=O)=O)cc4)N=C(N)N(C)C3=O)ccc2F)c1` (stereo not drawn) [Example 301, 4-{2-Amino-4-[4-fluoro-3-(4-methoxypyridin-2-yl)phenyl]-1-methyl-5-oxo-4,5-dihydro-1H-imidazol-4-yl}phenyl methanesulfonate 0.75 acetate], the IC50 is 53 nM.

For the molecule `COc1cc(OS(C)(=O)=O)cc(-c2cccc(C3(c4cc(C)nc(C)c4)N=C(N)N(C)C3=O)c2)c1` (stereo not drawn) [Example 305, 3′-(2-Amino-4-(2,6-dimethylpyridin-4-yl)-1-methyl-5-oxo-4,5-dihydro-1H-imidazo-4-yl)-5-methoxybiphenyl-3-yl methanesulfonate hydrochloride], the IC50 is 101 nM.

Take `Cc1cc(C2(c3cccc(-c4cc(Cl)cc(OS(C)(=O)=O)c4)c3)N=C(N)N(C)C2=O)cc(C)n1` (stereo not drawn) [Example 306, 3′-(2-Amino-4-(2,6-dimethylpyridin-4-yl)-1-methyl-5-oxo-4,5-dihydro-1H-imidazo-4-yl)-5-chlorobiphenyl-3-yl methanesulfonate hydrochloride]: the IC50 turned out to be 89 nM.
